The values that follow come from PMC8286840, “Identifying SARS-CoV-2 antiviral compounds by screening for small molecule inhibitors of Nsp3 papain-like protease” (Biochemical Journal, 2021).

In test [1] the target is T1, SARS-CoV-2 PLpro (nsp3 1564–1878) (Severe acute respiratory syndrome coronavirus 2, UniProt P0DTD1). Kind of test: biochemical. Also noted: FRET-quenched peptide (Pro3) cleavage by PLpro, 10 min pre-incubation, slope over 20 min, normalised to no-compound control. The following applies: high concentration screen, read-out: % of control remaining.
Test [2] concerns the target T1, SARS-CoV-2 PLpro (nsp3 1564–1878). The test is described as follows: biochemical. Also noted: FRET-quenched peptide (Pro3) cleavage by PLpro, 10 min pre-incubation, slope over 20 min, normalised to no-compound control. To be noted: low concentration screen, read-out: % of control remaining.

Molecules are shown by their SMILES. Counter-ions that a name gives are not always drawn. Like-named read-outs stand apart in the source and are kept apart here.

Consider `O=c1c(O)c(-c2cc(O)c(O)c(O)c2)oc2cc(O)cc(O)c12` [Myricetin], for which the remaining activity at 3.75 µM turned out to be 102% in test [1] (Well no.=838), 108% in test [1] (Well no.=3324) and 96.9% in test [1] (Well no.=6244). The remaining activity at 1.25 µM in test [2] (Well no.=838) was 101%; in test [2] (Well no.=3324), 103%; in test [2] (Well no.=6244) it was 96.2%.
On to `C[C@@H]1O[C@@H](Oc2c(-c3cc(O)c(O)c(O)c3)oc3cc(O)cc(O)c3c2=O)[C@H](O)[C@H](O)[C@H]1O` [Myricitrin], for which, in test [1] (Well no.=3343), the remaining activity at 3.75 µM turned out to be 97.9%. The remaining activity at 1.25 µM in test [2] (Well no.=3343) was 95.5%.
Regarding `CCCCCCC(=O)CCCCCC/C=C/C[C@@H](O)[C@H](O)[C@@](N)(CO)C(=O)O` [Myriocin], in test [1] (Well no.=3417), the remaining activity at 3.75 µM worked out at 101%. In addition, the remaining activity at 1.25 µM in test [2] (Well no.=3417) came out at 99.6%.
Regarding `CCCCCCCCCCCCCC(=O)O` [Myristic acid], in test [1] (Well no.=6979), the remaining activity at 3.75 µM worked out at 102%. Moreover, in test [2] (Well no.=6979), the remaining activity at 1.25 µM was 101%.
Turning to `C=CCc1cc(OC)c2c(c1)OCO2` [Myristicin], the remaining activity at 3.75 µM in test [1] (Well no.=3473) is 99.9%. In addition, the remaining activity at 1.25 µM in test [2] (Well no.=3473) turned out to be 99%.
In the case of `CN(C)c1nc2c(ncn2[C@@H]2O[C@H](CO)[C@@H](O)[C@H]2O)c(=O)[nH]1` [N2,N2-Dimethylguanosine], the remaining activity at 3.75 µM in test [1] (Well no.=6969) turned out to be 106%; in test [1] (Well no.=7820), 104%. The remaining activity at 1.25 µM in test [2] (Well no.=6969) turned out to be 105%; in test [2] (Well no.=7820), 104%.
As to `CC(=O)Nc1ccn([C@@H]2O[C@H](COP(=O)(O)OP(=O)(O)OP(=O)(O)O)[C@@H](O)[C@H]2O)c(=O)n1` [N4-Acetylcytidine triphosphate (sodium)], the figures for the remaining activity at 3.75 µM in test [1] (Well no.=7305) and in test [1] (Well no.=7964) were 109% and 92.1%, respectively. Besides, the remaining activity at 1.25 µM in test [2] (Well no.=7305) came to 109%; in test [2] (Well no.=7964) it was 95.2%.
With `CN(C)c1ncnc2c1ncn2[C@@H]1O[C@H](CO)[C@@H](O)[C@H]1O` [N6,N6-Dimethyladenosine], the remaining activity at 3.75 µM in test [1] (Well no.=7854) came out at 102%. Also, the remaining activity at 1.25 µM in test [2] (Well no.=7854) turned out to be 97.9%.
As for `Nc1ccc(CCNc2ncnc3c2ncn3[C@@H]2O[C@H](CO)[C@@H](O)[C@H]2O)cc1` [N6-2-(4-Aminophenyl)ethyladenosine], in test [1] (Well no.=162), the remaining activity at 3.75 µM came to 98%. Moreover, in test [2] (Well no.=162), the remaining activity at 1.25 µM was determined as 94.9%.
Regarding `OC[C@H]1O[C@@H](n2cnc3c(NCCc4ccccc4)ncnc32)[C@H](O)[C@@H]1O` [N6-2-Phenylethyladenosine], the remaining activity at 3.75 µM in test [1] (Well no.=1453) was 98.6%. Moreover, in test [2] (Well no.=1453), the remaining activity at 1.25 µM was 98.5%.
As to `OC[C@H]1O[C@@H](n2cnc3c(NCCc4ccccc4)ncnc32)[C@H](O)[C@@H]1O` [N6-(2-Phenylethyl)adenosine], in test [1] (Well no.=8431), the remaining activity at 3.75 µM turned out to be 96.2%. In test [2] (Well no.=8431), the remaining activity at 1.25 µM worked out at 96.1%.
`OC[C@H]1O[C@@H](n2cnc3c(NCc4ccc(O)cc4)ncnc32)[C@H](O)[C@@H]1O` [N6-(4-Hydroxybenzyl)adenosine]: the remaining activity at 3.75 µM was 101% in test [1] (Well no.=7233) and 97.1% in test [1] (Well no.=7954). The remaining activity at 1.25 µM in test [2] (Well no.=7233) was determined as 106%; in test [2] (Well no.=7954), 101%.
In the case of `OC[C@H]1O[C@@H](n2cnc3c(NC4CCCCC4)ncnc32)[C@H](O)[C@@H]1O` [N6-Cyclohexyladenosine], the remaining activity at 3.75 µM was determined as 100% in test [1] (Well no.=435), 95.5% in test [1] (Well no.=7053), 92.4% in test [1] (Well no.=7952) and 105% in test [1] (Well no.=8083). The remaining activity at 1.25 µM was determined as 98.1% in test [2] (Well no.=435), 96.4% in test [2] (Well no.=7053), 92% in test [2] (Well no.=7952) and 106% in test [2] (Well no.=8083).
As for `Cn1cnc2c(NC3CCCC3)ncnc21` [N6-Cyclopentyl-9-methyladenine], the remaining activity at 3.75 µM in test [1] (Well no.=988) is 99.1%. Also, in test [2] (Well no.=988), the remaining activity at 1.25 µM is 96.8%.
Consider `OC[C@H]1O[C@@H](n2cnc3c(NC4CCCC4)ncnc32)[C@H](O)[C@@H]1O` [N6-Cyclopentyladenosine], for which the remaining activity at 3.75 µM in test [1] (Well no.=330) was 88.2%. In test [2] (Well no.=330), the remaining activity at 1.25 µM turned out to be 85.8%.
Take `CCNc1ncnc2c1ncn2[C@@H]1O[C@H](CO)[C@@H](O)[C@H]1O` [N6-Ethyladenosine]: the results for the remaining activity at 3.75 µM in test [1] (Well no.=7906) and in test [1] (Well no.=8517) were 97.7% and 95.1%, respectively. The remaining activity at 1.25 µM in test [2] (Well no.=7906) was found to be 99.5%; in test [2] (Well no.=8517) it was 100%.
Turning to `CNc1ncnc2c1ncn2[C@@H]1O[C@H](CO)[C@@H](O)[C@H]1O` [N6-Methyladenosine], the remaining activity at 3.75 µM is 96.9% in test [1] (Well no.=930) and 96.2% in test [1] (Well no.=8052). The remaining activity at 1.25 µM worked out at 97.7% in test [2] (Well no.=930) and 95.7% in test [2] (Well no.=8052).
For the compound `OC[C@H]1O[C@@H](n2cnc3c(Nc4ccccc4)ncnc32)[C@H](O)[C@@H]1O` [N6-Phenyladenosine], the remaining activity at 3.75 µM in test [1] (Well no.=1501) turned out to be 100%. For the same compound, the remaining activity at 1.25 µM in test [2] (Well no.=1501) is 97.5%.
`CC(C)n1cnc2c(NCc3ccccc3)nc(NCCO)nc21` [N9-Isopropylolomoucine]: the remaining activity at 3.75 µM in test [1] (Well no.=716) is 98.5%. In test [2] (Well no.=716), the remaining activity at 1.25 µM came to 96.5%.
On to `CC(C)c1ccc(C(=O)N=C(N)N)cc1S(C)(=O)=O` [N''-[4-isopropyl-3-(methylsulfonyl)benzoyl]guanidine], for which the remaining activity at 3.75 µM in test [1] (Well no.=5586) amounted to 91.3%. The remaining activity at 1.25 µM in test [2] (Well no.=5586) was determined as 91.7%.
As to `CN(C)C(=O)N=NC(=O)N(C)C` [N,N,N',N'-Tetramethylazodicarboxamide], the remaining activity at 3.75 µM in test [1] (Well no.=735) was 98.5%. Further, the remaining activity at 1.25 µM in test [2] (Well no.=735) is 94.9%.
As for `CC(COc1ccc(/C=C/c2ccccc2)cc1)[N+](C)(C)C` (stereo not drawn) [N,N,N-trimethyl-1-(4-trans-stilbenoxy)-2-propylammonium iodide], the remaining activity at 3.75 µM in test [1] (Well no.=1531) worked out at 99.7%. Moreover, the remaining activity at 1.25 µM in test [2] (Well no.=1531) came out at 98.1%.
Regarding `CCCCCCN(CCCCCC)C(=O)Cc1c(-c2ccc(F)cc2)[nH]c2ccccc12` [N,N-Dihexyl-2-(4-fluorophenyl)indole-3-acetamide], the remaining activity at 3.75 µM in test [1] (Well no.=632) was determined as 96.6%. The remaining activity at 1.25 µM in test [2] (Well no.=632) was 99.3%.
As to `CCCN(CCC)CCc1c[nH]c2ccc(C(N)=O)cc12` [N,N-Dipropyl-5-carboxamidotryptamine maleate], the remaining activity at 3.75 µM in test [1] (Well no.=402) is 97.1%. In addition, the remaining activity at 1.25 µM in test [2] (Well no.=402) worked out at 95.4%.
Take `COc1cc2nccc(Oc3ccc(NC(=O)Nc4ccc(F)cc4F)c(F)c3)c2cc1OC` [N-(2,4-Difluorophenyl)-N'-[4-[(6,7-dimethoxy-4-quinolinyl)oxy]-2-fluorophenyl]urea]: the remaining activity at 3.75 µM in test [1] (Well no.=2572) amounted to 98.1%. For the same compound, the remaining activity at 1.25 µM in test [2] (Well no.=2572) was determined as 92%.
